Results reported in a melting point compilation (Tetko et al.; mined from patent text by program, amines drawn as free bases though some values may be those of a salt).

SMILES	melting point
Cc1nc2c3c(c(C(=O)N(C)CCO)cc2n1C)CCC1(Cc2ccccc2C1)N3	194 to 195 °C
CC1(C)CCC(C)(C)c2cc(-c3cc(-c4ccc(C(=O)O)cc4)ccc3CCCO)ccc21	203 °C
COc1ccc2sc(C(=O)Oc3ccccc3)c(Oc3ccccc3)c2c1	198 °C
NNc1nncc(-c2ccccc2F)n1	171 to 174 °C
Cc1ccc(-c2nc3cccnc3n2CC(=O)O)s1	> 250 °C
CSc1nc(OC(F)F)cc(OC(F)F)n1	46 to 48 °C
C#CCNC(=O)/C=C\SC(=O)c1ccccc1	131 to 134 °C
COc1cccc(-c2cc(F)c3c(c2)CC(CN)O3)c1 (stereo not given)	> 250 °C
Cc1cc(NC(=O)C=Cc2ccccc2)c(NC(=O)C=Cc2ccccc2)cc1C	244 °C
CN1C(=O)CN(c2cccc(Br)c2)NC1=O	165 to 166 °C
COc1cc(C(=O)O)ccc1S(=O)(=O)n1c(=O)n(C2CCCCC2)c2cc(OC3CCCC3)ccc21	245 °C
Nc1ccc(-c2cc3c(N4CCc5ccccc54)ncnc3[nH]2)cc1	> 300 °C
Clc1ccc2c(Br)ccnc2c1	102 to 103 °C
O=C(Nc1cccnn1)N1CCN(c2nccc(-c3cccc(F)c3F)n2)CC1	248 to 249 °C
CC(=O)OC1(N=NC2(OC(C)=O)CC(C)CC(C)(C)C2)CC(C)CC(C)(C)C1 (stereo not given)	111 to 115 °C
COc1ccc(Cl)c(S(=O)(=O)NC(=O)c2cn3cc(C(F)(F)F)ncc3n2)c1	236 to 237 °C
CCOC(=O)c1nnc2ccc(NCCCN3CCC(OC(c4ccccc4)c4ccccc4)CC3)nn12	129 to 133 °C

SMILES	melting point
CC(=O)C(C)Oc1cc(-n2c(=O)cc(C(F)(F)F)n(C)c2=O)c(F)cc1Br (stereo not given)	119 °C
CC(C)=CCCC(C)=CCOc1ccc(C(=O)NCCNc2cccnc2)cc1	88.5 to 89.2 °C
Cc1cccc2nc(CSc3ncnc4[nH]cnc34)n(-c3ccccc3Cl)c(=O)c12	228 to 230 °C
COc1ccc(CCN(C)CCCC(C#N)(C(=O)OC(C)C)c2ccc(OC)c(OC)c2)cc1OC (stereo not given)	66 to 67 °C
CC12C=CCC1C1CCC3=CC(=O)CCC3=C1CC2 (stereo not given)	87 to 92 °C
c1ccc(CN2CCC(n3cnnc3-c3ccccc3)CC2)cc1	111 to 114 °C
C=C=COc1ccc(-c2ccc(OC=C=C)cc2)cc1	135 to 138 °C
CC(C)(C)C(=O)COC(=O)C1(C(=O)OCc2ccccc2)CCCN(C(=O)OCC(Cl)(Cl)Cl)C1 (stereo not given)	114 °C
COC(=O)C1=NNC(C)=C(C(=O)OC)C1c1ccccc1 (stereo not given)	187 °C
CC(C)COc1ccccc1C(=N)N	49 to 51 °C
Cc1noc(NS(=O)(=O)c2ccsc2C(=O)Nc2cc3c(cc2C#N)OCO3)c1Cl	167 to 168 °C
C=CCNC(=O)N1CC(Oc2ccc(C(F)(F)F)cc2)C1	91 to 92.5 °C
COc1cccc(C(=O)Nc2ccc(N3CCOCC3)cc2C(C)=O)c1OC	146 to 148 °C
CNc1cc(O)c(OCCO)cc1[N+](=O)[O-]	210 °C
CC1(C)CC(SCc2c(C(F)(F)F)n[nH]c2Cl)=NO1	120 to 122 °C
CC(C)(C)OC(=O)CCc1cccc(-c2nc(=O)c3ccc(F)cc3s2)n1	158 to 160 °C

Further lines, results first:

melting point	SMILES
105 to 108 °C	CCOC(=O)c1c(N(Cc2c(F)cccc2F)C(=O)OCC)sc(-c2ccc([N+](=O)[O-])cc2)c1CBr
158 to 160 °C	Cc1nnc2c(C(C)Oc3ccc(Cl)cc3)ccnn12 (stereo not given)
228 °C	O=C(N[C@H]1CC[C@H](CCN2CCC(c3cccc4c3CCO4)CC2)CC1)c1ccc(N2CCOCC2)nc1
145 to 146 °C	Cc1ccc(S(=O)(=O)O[C@@H]2C[C@@H](CCl)N(S(=O)(=O)c3ccc(C)cc3)C2)cc1
108 to 109 °C	COC(=O)CC[C@H](NC(=O)c1ccc(OCc2ccccc2)cc1)C(=O)OC
195 to 196 °C	Cn1ncc(/C=C/C(=O)Nc2ccc(Cc3nc4ccccc4o3)cc2)c1-c1ccc(F)cc1
83 to 84 °C	CC=Cc1cc(C(=O)c2ccccc2F)c(Cl)c(Cl)c1O
254 to 257 °C	CC(C)C1=C(C#N)C(c2cccc(N3CCOCC3)c2)c2c[nH]nc2N1 (stereo not given)
173 to 178 °C	CC1CC(c2c(S(C)(=O)=O)ccc(C(=O)O)c2Cl)=NO1 (stereo not given)
164 to 169 °C	O=C(NO)C1(NS(=O)(=O)c2ccc(OCc3ccc(Cl)cc3Cl)cc2)CC1c1ccccc1 (stereo not given)
204 to 206 °C	CC1(C)OC(=S)N(c2cc(F)cc(C(F)(F)F)c2)c2ccccc21
64 to 65 °C	COCC(CCO)(OC)c1cccc(OCc2ccc3ccccc3c2)c1 (stereo not given)
151 to 154 °C	c1ccc2cc(CC[C@H]3CNCCN3)ccc2c1
83 to 85 °C	COC(=O)c1cc(C(C)(C)C#N)cc(C(C)(C)C#N)c1
151 °C	COc1c(C)c(C(=O)c2ccc([N+](=O)[O-])cc2)n2ccccc12
195 to 198 °C	Cc1nc2cccc(OCC(C)(C)NC(=O)CC(C)C)c2c(N)c1C(=O)O
172 to 174 °C	COc1nc2ncccc2c2nc(S(=O)(=O)Cl)nn12
113 °C	CC(C)Cn1nc(-c2ccc(F)c(F)c2)cc(COS(C)(=O)=O)c1=O
234 to 235 °C	CC1(Cn2c(=O)n(-c3ccccc3)c3ccccc32)Cn2cc([N+](=O)[O-])nc2O1 (stereo not given)

melting point	SMILES
143 to 145 °C	O=C(NCCCc1ccncc1)N(CCCC(F)(F)F)CCC12CC3CC(CC(C3)C1)C2
148 °C	CCc1nnc(-c2ccc(OC)c(OC)c2)n1-c1ccc(OC)cc1
63 to 65 °C	CCCCCCCCCCCCn1nnc(C(C)(C)S(=O)(=O)Nc2c(C(C)C)cccc2C(C)C)n1
115 to 116 °C	CC(C)CC(C(=O)O)c1cc(Cl)c(-c2ccc(C(F)(F)F)cc2)c(OCC2CC2)c1 (stereo not given)
144 to 145 °C	O=C(OCc1ccccc1)N1CCc2c(sc3nc(CCl)c(Cl)c(-c4ccc(OCc5ccccc5)cc4)c23)C1
167 °C	O=[N+]([O-])c1ccc(O)cc1OCCO
245 to 250 °C	O=C(O)C1Oc2ccc3ccccc3c2C=C1C(F)(F)F (stereo not given)
93 to 97 °C	CCCCOc1cc2cc(CO)c(CO)c(-c3ccnc(Cl)c3)c2cc1OC
290 to 291 °C	CCOC(=O)c1c(-c2ccccc2C)c2cc(C)c(Cl)cc2[nH]c1=O
140 °C	O=C1CC(NC(=O)C2CCCN3C(=O)CCC(NC(=O)c4ccccc4)C(=O)N23)C(OC2Cc3ccccc3C2)O1 (stereo not given)
209 to 210 °C	CCN(c1nc(C)cc(-c2ccccc2C(=O)O)n1)c1ccc(C(C)C)cc1Br
185 to 186 °C	COc1ccc2sc3c(c2c1)OC(C)CNC3=O (stereo not given)
123 to 124 °C	O=C(O)c1ccc(OCc2ccccc2)cc1OCc1ccccc1
78 to 80 °C	CCOC(=O)/C=C/c1cccc(C2CCCC2)c1OCCc1ccccc1
177 to 178 °C	Cc1nc(N2CCN(Cc3ccc(F)cc3)C2=O)sc1C(=O)NCc1ccc(F)cc1
> 250 °C	NC(=O)c1ccc2c(O)cncc2c1
177 to 178 °C	O=C(O)CCc1ccc(CCN2CCN(S(=O)(=O)c3ccccc3)CC2)cc1
318 to 324 °C	Nc1c(Br)cc2c3c(cccc13)C(=O)N(O)C2=O
